Earlier results on one compound are cited in US20020048798A1, “Novel antioxidants” (priority 2000, published 2002).

For this data set the following is noted: factor relative to the racemate of α-lipoic acid.

Consider `O=C(O)CCCC[C@@H]1CCSS1` [R-α-lipoic acid], for which the “anti-inflammatory activity, stronger by a factor than that of the racemate” value was 10.
